Reference: PMC4000009, “Ardisia crispa roots inhibit cyclooxygenase and suppress angiogenesis” (BMC Complementary and Alternative Medicine, 2014)

What was measured:
COX-2 = target: T1, COX-2 (Ovis aries, UniProt P79208); experiment: Colorimetric COX (ovine) inhibitor screening assay, COX-2; format: biochemical; settings: read-out: Percentage of COX inhibition (%) COX-2
T1 construct: purchased Cayman 760111
T1 sequence (P79208 17-603): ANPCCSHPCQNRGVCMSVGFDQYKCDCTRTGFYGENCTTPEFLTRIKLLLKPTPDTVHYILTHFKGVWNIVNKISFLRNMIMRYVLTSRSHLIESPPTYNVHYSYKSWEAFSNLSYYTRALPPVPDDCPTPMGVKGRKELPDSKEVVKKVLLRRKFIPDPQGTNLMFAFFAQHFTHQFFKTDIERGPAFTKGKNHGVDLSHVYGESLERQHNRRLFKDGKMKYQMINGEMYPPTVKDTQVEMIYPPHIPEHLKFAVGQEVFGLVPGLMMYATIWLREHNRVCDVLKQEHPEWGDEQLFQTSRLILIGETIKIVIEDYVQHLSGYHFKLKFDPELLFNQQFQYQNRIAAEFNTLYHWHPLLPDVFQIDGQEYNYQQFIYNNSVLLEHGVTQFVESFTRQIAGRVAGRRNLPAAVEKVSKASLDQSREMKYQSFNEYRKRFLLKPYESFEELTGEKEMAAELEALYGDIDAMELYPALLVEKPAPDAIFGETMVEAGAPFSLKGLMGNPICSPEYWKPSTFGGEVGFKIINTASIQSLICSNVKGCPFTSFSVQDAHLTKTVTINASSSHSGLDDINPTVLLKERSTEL
Description: (§1) Cyclooxygenase activity assay was performed according to Yang et al., with slight modification. […] The assay was conducted by monitoring the appearance of oxidized N, N, N’, N’- tetramethyl-p-phenediamine (TMPD) at […]. […] The plate was shaken for a few seconds and incubated for 5 min at 25°C. 20 μl of the colorimetric substrate solution (TMPD) was added to all of the wells. 20 μl of arachidonic acid was added to all the wells. The plate was shaken for a few seconds and incubated for 5 min at 25°C. The absorbance was measured at 590 nm using a microplate reader. Average absorbance was calculated for all the samples (n = 3) in order to determine the percentage of inhibition. The calculation of inhibitory percentage is as portrayed below:
(§2) %inhibition=100%initialactivity‒inhibitorwells/100%initialactivity×100
(§3) In mouse sponge implantation assay, statistical analysis was performed using SPSS version 16. One-way Analysis of Variance (ANOVA) with post-hoc test of Least Significant Difference (LSD) were utilised with P < 0.05 was considered to be statistically significant. The results were reported as mean ± SEM. For in vitro studies, average of the results obtained was determined in order to construct a graph, whereby IC50 of each groups were identified, respectively. IC50 was calculated using GraphPad Prism 5 software. Data were reported as mean ± SEM.

[1] = target: T2, Soybean lipoxygenase type I-B (Glycine max, UniProt P08170); experiment: Soy lipoxygenase inhibitory assay; format: biochemical
T2 construct: purchased Sigma Aldrich
T2 sequence (P08170 1-839): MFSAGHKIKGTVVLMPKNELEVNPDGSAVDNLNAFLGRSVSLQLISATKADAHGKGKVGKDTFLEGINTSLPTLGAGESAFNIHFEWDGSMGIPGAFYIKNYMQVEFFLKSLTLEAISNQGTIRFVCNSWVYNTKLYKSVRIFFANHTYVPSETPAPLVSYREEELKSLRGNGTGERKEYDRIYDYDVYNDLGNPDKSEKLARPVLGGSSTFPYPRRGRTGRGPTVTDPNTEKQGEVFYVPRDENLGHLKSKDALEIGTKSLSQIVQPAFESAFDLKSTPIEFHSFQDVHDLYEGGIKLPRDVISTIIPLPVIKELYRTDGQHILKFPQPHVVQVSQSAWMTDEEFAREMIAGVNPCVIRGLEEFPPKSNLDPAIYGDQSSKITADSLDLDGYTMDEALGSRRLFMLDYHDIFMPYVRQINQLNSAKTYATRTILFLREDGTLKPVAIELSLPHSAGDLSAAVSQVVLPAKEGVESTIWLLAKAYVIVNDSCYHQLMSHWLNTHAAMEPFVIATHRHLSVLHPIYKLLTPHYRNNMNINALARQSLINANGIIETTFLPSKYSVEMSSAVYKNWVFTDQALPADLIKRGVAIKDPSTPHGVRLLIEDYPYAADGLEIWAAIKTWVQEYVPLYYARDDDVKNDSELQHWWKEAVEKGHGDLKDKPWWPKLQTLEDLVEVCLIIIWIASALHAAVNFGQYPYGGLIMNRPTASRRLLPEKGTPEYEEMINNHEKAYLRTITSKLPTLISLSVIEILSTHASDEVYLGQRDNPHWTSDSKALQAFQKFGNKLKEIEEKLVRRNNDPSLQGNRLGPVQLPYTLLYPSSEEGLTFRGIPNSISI
Description: Soy lipoxygenase inhibitory assay was performed according to the method proposed by Azhar-Ul-Haq et al.. Rutin was used as positive control. 160 μl of 100 mM sodium phosphate buffer (pH8.0), 10 μl of ACRH and QRF were dissolved in ethanol in different concentrations (200 μg/mL, 100 μg/mL, 50 μg/mL, 25 μg/mL, and 12.5 μg/mL) and 20 μl of lipoxygenase solution were mixed in the well and incubated for 10 mins at room temperature. The reaction was then initiated by adding 10 μl of linoleic solution and the absorbance was determined at 234 nm after 6 minutes. All concentrations were performed in triplicate. The IC50 value was then calculated.
as §3

COX-1 = target: T3, COX-1 (Ovis aries, UniProt P05979); experiment: Colorimetric COX (ovine) inhibitor screening assay, COX-1; format: biochemical; settings: n = 3
T3 construct: purchased Cayman 760111
T3 sequence (P05979 25-600): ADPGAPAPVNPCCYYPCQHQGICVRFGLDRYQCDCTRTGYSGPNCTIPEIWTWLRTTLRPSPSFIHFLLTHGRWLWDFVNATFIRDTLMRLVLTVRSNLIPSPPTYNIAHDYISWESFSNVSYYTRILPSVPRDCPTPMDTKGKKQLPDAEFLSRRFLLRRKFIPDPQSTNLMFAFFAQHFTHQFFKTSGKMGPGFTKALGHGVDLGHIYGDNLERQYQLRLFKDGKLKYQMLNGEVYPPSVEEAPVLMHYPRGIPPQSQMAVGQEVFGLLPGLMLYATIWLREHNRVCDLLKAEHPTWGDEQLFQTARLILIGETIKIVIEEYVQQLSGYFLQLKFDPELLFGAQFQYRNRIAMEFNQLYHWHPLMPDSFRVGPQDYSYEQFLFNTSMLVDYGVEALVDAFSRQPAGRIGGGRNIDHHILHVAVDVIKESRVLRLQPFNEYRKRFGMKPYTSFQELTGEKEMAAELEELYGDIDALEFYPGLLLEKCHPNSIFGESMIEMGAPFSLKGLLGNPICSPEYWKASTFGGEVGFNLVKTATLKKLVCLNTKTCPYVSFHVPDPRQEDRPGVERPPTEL
Description: as §1, §2, §3

[2] = tested on: VEGF-induced blood vessel formation; experiment: Mouse sponge implantation assay (VEGF-impregnated gelatin sponge, mean vascular density); format: in vivo; settings: 100 ng treatment in VEGF sponge, 14 days; relative to VEGF group
Description: Prior to experimentation, absorbable gelatin sponge was cut (5 mm × 8 mm) and hydrated in sterile PBS overnight at 4°C. […] The sponges were allowed to solidify at room temperature for one hour before commencement of the experiment. Mice were anesthetized with Avertin (10 mL/kg) prior to experimentation. Hardened gel piece was inserted into incised subcutaneous pocket created laterally. The animals were allowed to recuperate for 14 days. After that, the animals were euthanized and the gel piece was harvested and rinsed with normal saline.
The sponge samples were fixed in 10% formalin (v/v) for 7 days and subjected to histopathological analysis. The number of vessels was counted in 15 consecutive fields using a 20X objective and the mean MVD was calculated [19].
In mouse sponge implantation assay, statistical analysis was performed using SPSS version 16. One-way Analysis of Variance (ANOVA) with post-hoc test of Least Significant Difference (LSD) were utilised with P < 0.05 was considered to be statistically significant. The results were reported as mean ± SEM. […] Data were reported as mean ± SEM.

Row | Structure (SMILES) | inhibition at 12.5 µg/mL (COX-2) [%] | inhibition at 25 µg/mL (COX-2) [%] | inhibition at 50 µg/mL (COX-2) [%] | inhibition at 100 µg/mL (COX-2) [%] | inhibition at 200 µg/mL (COX-2) [%] | IC50 [1] [µM] | Percentage of COX inhibition (%) COX-1 (COX-1; 12.5 μg/ml) [%] | Percentage of COX inhibition (%) COX-1 (COX-1; 25 μg/ml) [%] | Percentage of COX inhibition (%) COX-1 (COX-1; 50 μg/ml) [%] | Percentage of COX inhibition (%) COX-1 (COX-1; 100 μg/ml) [%] | Percentage of COX inhibition (%) COX-1 (COX-1; 200 μg/ml) [%] | % inhibition (of MVD) [2] [%]
1 | CC(=O)Oc1ccccc1C(=O)O [Aspirin] | 33.9 ± 1.07 | 51.38 ± 0.154 | 54.29 ± 0.307 | 59.05 ± 0.153 | 62.42 ± 0.154 | 763 | 27.778 ± 0.505 | 36.027 ± 1.347 | 37.879 ± 0.842 | 40.067 ± 1.347 | 46.465 ± 0.505 | –
2 | C[C@@H]1O[C@@H](OC[C@H]2O[C@@H](Oc3c(-c4ccc(O)c(O)c4)oc4cc(O)cc(O)c4c3=O)[C@H](O)[C@@H](O)[C@@H]2O)[C@H](O)[C@H](O)[C@H]1O [Rutin] | – | – | – | – | – | 72.7 | – | – | – | – | – | –
3 | CC1(C)Cc2c(-c3ccccc3)c(-c3ccc(Cl)cc3)c(CC(=O)O)n2C1 [licofelone] | – | – | – | – | – | – | – | – | – | – | – | 67.14
